Data from patent publication EP0336068A1, “Phenoxyalkoxy-3,4-dihydro-2H-1-benzopyran derivatives” (F. HOFFMANN-LA ROCHE AG, priority 1988, dated 1989).

Tested on: Antibiotic-Induced Colitis in Hamsters
Assay: Antibiotic-induced colitis in hamsters (in vivo), survival
Set-up: species or system Syrian hamsters
Settings: given orally at 20 micromoles per kilogram; colitis induced by 175 mg/kg clindamycin intraperitoneally; first dose about seven hours after injection, then twice a day for four more days; Hazard Ratio >1.0 = therapy prolongs survival versus vehicle
Protocol: Antibiotic-Induced Colitis in Hamsters (In Vivo):
Male Syrian hamsters (LUG), weighing 80 to 120 g, were each given a single dose of 175 mg/kg of clindamycin-phosphate or of clindamycin-hydrochloride intraperitoneally, to induce colitis. Approximately seven hours after injection, the animals wer given the test compound orally or intraperitoneally and the therapy was continued twice a day for a period of four more days. The effect of the therapy was measured by use of the Hazard Ratio, which is the ratio of the mortality of the animals treated with the test compound contained in a vehicle to the mortality of the animals treated with the vehicle containing none of the test compound. The mortality was determined for the test compound-treated groups and for the vehicle-treated groups, respectively, twice daily, and was evaluated by comparing the survival curves of each group. The Kaplan-Meier estimate of the survival curve was calculated for each group and the Mantel-Cox (logrank) test was used to compare the survival curve of each test compound-treated (therapy) group to that of the corresponding vehicle control group.

CCCCCCCCOC(=O)C1CCc2cc(C(C)=O)c(OCCCCCOc3ccc(C(C)=O)c(O)c3CCC)cc2O1 (racemic) [racemic 6-acetyl-7-[5-(4-acetyl-3-hydroxy-2-propylphenoxy)pentyloxy]-3,4-dihydro-2H-1-benzopyran-2-carboxylic acid n-octyl ester]
Hazard Ratio: 2.0
